SMILES strings stand for the structures.

Here are results for two molecules from publication PMC4769319, “Cohesin Releases DNA through Asymmetric ATPase-Driven Ring Opening” (Molecular Cell, 2016).

For this assay, the target named is T1, Smc1/Smc3 heterodimer with Scc1-C (cohesin) (Saccharomyces cerevisiae, UniProt P32908+P47037, P47037:K38I, form not given).
T1 construct: N-terminal tags; Sf9 insect cells; fluorescently labelled for MST; with Sister chromatid cohesion protein 1
T1 sequence (P32908 1-1225): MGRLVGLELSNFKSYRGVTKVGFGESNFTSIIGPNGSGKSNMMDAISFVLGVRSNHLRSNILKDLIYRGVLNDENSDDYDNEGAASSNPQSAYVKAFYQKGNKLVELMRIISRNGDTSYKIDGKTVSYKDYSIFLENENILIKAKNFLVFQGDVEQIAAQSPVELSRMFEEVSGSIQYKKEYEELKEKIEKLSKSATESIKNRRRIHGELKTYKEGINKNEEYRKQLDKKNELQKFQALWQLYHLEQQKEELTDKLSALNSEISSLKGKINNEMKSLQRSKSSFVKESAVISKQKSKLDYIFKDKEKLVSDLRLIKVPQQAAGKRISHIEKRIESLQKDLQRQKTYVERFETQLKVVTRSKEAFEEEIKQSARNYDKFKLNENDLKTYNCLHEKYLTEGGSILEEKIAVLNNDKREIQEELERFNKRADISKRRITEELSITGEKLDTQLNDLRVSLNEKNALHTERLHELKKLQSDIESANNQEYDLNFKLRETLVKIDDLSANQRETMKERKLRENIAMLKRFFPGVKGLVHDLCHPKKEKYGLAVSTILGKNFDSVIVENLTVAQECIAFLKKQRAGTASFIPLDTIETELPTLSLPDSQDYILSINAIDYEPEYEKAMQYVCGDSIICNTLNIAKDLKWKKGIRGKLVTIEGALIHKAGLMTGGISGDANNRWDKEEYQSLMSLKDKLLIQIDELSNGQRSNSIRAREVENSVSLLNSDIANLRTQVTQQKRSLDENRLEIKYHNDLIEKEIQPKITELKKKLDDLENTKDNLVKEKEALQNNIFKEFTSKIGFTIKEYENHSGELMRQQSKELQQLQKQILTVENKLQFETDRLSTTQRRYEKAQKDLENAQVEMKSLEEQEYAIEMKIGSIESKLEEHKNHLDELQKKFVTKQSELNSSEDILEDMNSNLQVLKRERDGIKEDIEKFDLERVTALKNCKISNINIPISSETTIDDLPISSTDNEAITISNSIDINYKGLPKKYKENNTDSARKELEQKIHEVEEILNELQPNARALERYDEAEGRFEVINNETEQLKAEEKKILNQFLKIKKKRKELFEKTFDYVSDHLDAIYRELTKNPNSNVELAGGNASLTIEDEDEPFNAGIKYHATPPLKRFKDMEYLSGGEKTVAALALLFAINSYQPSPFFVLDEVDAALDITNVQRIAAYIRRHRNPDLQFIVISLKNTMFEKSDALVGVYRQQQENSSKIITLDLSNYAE
T1 sequence (P47037 1-1230 K38I): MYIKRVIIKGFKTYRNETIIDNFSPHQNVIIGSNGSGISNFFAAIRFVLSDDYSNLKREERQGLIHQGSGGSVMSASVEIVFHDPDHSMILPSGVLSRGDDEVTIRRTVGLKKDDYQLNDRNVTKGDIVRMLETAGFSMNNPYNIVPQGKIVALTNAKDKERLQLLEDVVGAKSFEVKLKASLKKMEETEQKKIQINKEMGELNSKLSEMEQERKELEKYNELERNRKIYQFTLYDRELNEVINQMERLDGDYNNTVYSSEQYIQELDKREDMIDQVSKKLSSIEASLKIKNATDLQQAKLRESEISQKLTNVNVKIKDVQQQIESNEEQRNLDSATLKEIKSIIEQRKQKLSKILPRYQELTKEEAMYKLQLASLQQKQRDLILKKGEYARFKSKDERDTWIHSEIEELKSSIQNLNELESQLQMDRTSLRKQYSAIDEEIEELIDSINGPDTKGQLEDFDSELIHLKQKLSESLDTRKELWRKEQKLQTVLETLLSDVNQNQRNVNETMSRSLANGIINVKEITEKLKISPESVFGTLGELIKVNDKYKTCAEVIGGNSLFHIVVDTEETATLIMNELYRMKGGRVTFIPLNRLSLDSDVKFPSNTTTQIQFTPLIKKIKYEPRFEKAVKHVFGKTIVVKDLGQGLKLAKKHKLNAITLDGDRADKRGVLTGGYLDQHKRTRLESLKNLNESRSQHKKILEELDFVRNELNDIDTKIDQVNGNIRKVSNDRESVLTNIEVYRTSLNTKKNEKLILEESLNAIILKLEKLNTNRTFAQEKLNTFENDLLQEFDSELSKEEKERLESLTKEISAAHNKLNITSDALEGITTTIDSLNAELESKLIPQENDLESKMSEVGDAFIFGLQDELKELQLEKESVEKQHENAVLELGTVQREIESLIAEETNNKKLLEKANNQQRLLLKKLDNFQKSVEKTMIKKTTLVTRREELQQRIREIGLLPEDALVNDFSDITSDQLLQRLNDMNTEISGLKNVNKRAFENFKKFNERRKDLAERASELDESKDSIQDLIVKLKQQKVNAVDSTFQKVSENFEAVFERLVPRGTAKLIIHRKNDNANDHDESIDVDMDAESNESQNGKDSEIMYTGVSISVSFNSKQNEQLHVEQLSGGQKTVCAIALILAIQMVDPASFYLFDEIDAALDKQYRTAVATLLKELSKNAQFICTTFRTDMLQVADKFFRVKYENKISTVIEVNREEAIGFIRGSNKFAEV
T1 sequence (Q12158 1-566 partner): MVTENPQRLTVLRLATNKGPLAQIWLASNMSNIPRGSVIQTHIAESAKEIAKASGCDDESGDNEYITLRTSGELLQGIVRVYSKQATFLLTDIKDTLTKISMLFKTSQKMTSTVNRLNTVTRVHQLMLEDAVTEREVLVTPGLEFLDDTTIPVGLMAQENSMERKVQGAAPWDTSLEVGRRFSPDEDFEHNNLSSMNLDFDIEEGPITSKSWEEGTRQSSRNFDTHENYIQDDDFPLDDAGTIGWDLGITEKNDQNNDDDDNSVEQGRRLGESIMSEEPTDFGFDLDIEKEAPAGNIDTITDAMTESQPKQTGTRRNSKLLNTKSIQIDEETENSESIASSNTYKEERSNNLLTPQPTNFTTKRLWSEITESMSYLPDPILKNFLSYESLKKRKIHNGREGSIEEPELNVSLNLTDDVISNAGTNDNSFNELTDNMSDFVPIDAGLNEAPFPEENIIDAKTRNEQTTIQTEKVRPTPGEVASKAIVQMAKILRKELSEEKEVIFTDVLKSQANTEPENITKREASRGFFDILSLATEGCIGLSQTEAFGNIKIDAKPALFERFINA
Put plainly: microscale thermophoresis. The settings on record: fluorescently labelled protein; Smc1 co-purified with Scc1-C, plus Smc3; binding abrogated. (MST reads how a fluorescent partner responds to local heating, with and without ligand.)

As for `Nc1ncnc2c1ncn2[C@@H]1O[C@H](COP(=O)(O)OP(=O)(O)O)[C@@H](O)[C@H]1O` [ADP], the microscale thermophoresis entry was “each of the Walker A mutations efficiently abrogated binding to ATP and ADP”.
With `Nc1ncnc2c1ncn2[C@@H]1O[C@H](COP(=O)(O)OP(=O)(O)OP(=O)(O)O)[C@@H](O)[C@H]1O` [ATP], the microscale thermophoresis result was “each of the Walker A mutations efficiently abrogated binding to ATP and ADP”.
